Results as given in patent publication US20210015098A1, “MOLECULES HAVING PESTICIDAL UTILITY, AND INTERMEDIATES, COMPOSITIONS, AND PROCESSES, RELATED THERETO” (DOW AGROSCIENCES LLC, priority 2018, published 2021).

Key:
[1] = system: Beet Armyworm (Spodoptera exigua, LAPHEG); test: Bioassays on Beet Armyworm (BAW), 128-well diet tray assay; type: in vivo; details: Beet Armyworm, Table ABC Biological Results, read-out: BAW (rating)
Procedure: (§1) Certain molecules disclosed in this document were tested against BAW and CL using procedures described in the following examples. In the reporting of the results, the “BAW & CL Rating Table” was used (See Table Section).
Bioassays on BAW were conducted using a 128-well diet tray assay. One to five second instar BAW larvae were placed in each well (3 mL) of the diet tray that had been previously filled with 1 mL of artificial diet to which 50 μg/cm^2 of the test molecule (dissolved in 50 μL of 90:10 acetone-water mixture) had been applied (to each of eight wells) and then allowed to dry. Trays were covered with a clear self-adhesive cover, vented to allow gas exchange, and held at 25° C., 14:10 light-dark for five to seven days. Percent mortality was recorded for the larvae in each well; activity in the eight wells was then averaged. The results are indicated in the table entitled “Table ABC: Biological Results” (See Table Section).

[2] = system: Cabbage Looper (Trichoplusia ni, TRIPNI); test: Bioassays on Cabbage Looper (CL), 128-well diet tray assay; type: in vivo; details: Cabbage Looper, Table ABC Biological Results, read-out: CL (rating)
Procedure: as §1
Bioassays on CL were conducted using a 128-well diet tray assay. One to five second instar CL larvae were placed in each well (3 mL) of the diet tray that had been previously filled with 1 mL of artificial diet to which 50 μg/cm^2 of the test molecule (dissolved in 50 μL of 90:10 acetone-water mixture) had been applied (to each of eight wells) and then allowed to dry. Trays were covered with a clear self-adhesive cover, vented to allow gas exchange, and held at 25° C., 14:10 light-dark for five to seven days. Percent mortality was recorded for the larvae in each well; activity in the eight wells was then averaged. The results are indicated in the table entitled “Table ABC: Biological Results” (See Table Section).

Structure (SMILES) | pest or weed control at 50 µg/cm2 [1] [%] | pest or weed control at 50 µg/cm2 [2] [%]
O=C(C[S+]([O-])CC(F)(F)F)Nc1c(F)ccc(NC(=O)c2cc(NC(=O)[C@H]3[C@H](c4cc(Cl)c(Cl)c(Cl)c4)C3(Cl)Cl)ccc2Cl)c1F (stereo partly drawn) [F29, 2-Chloro-5-((1R,3R)-2,2-dichloro-3-(3,4,5-trichlorophenyl)cyclopropane-1-carboxamido)-N-(2,4-difluoro-3-(2-((2,2,2-trifluoroethyl)sulfinyl)acetamido)phenyl)benzamide] | 50 to 100 | 50 to 100
O=C(C[S+]([O-])CC(F)(F)F)Nc1c(F)ccc(NC(=O)c2cc(NC(=O)[C@H]3[C@H](c4ccc(Cl)c(Cl)c4)C3(Cl)Cl)ccc2Cl)c1F (stereo partly drawn) [F30, 2-chloro-5-((R,3R)-2,2-dichloro-3-(3,4-dichlorophenyl)cyclopropane-1-carboxamido)-N-(2,4-difluoro-3-(2-((2,2,2-trifluoroethyl)sulfinyl)acetamido)phenyl)benzamide] | 50 to 100 | 50 to 100
O=C(C[S+]([O-])CC(F)(F)F)Nc1c(F)ccc(NC(=O)c2cc(NC(=O)[C@H]3[C@H](c4ccc(F)c(Cl)c4)C3(Cl)Cl)ccc2Cl)c1F (stereo partly drawn) [F31, 2-Chloro-5-((1R,3R)-2,2-dichloro-3-(3-chloro-4-fluorophenyl)cyclopropane-1-carboxamido)-N-(2,4-difluoro-3-(2-((2,2,2-trifluoroethyl)sulfinyl)acetamido)phenyl)benzamide] | 50 to 100 | 50 to 100
O=C(C[S+]([O-])C(F)(F)F)Nc1c(F)ccc(NC(=O)c2cc(NC(=O)[C@H]3[C@H](c4ccc(F)c(C(F)(F)F)c4)C3(Cl)Cl)ccc2Cl)c1F (stereo partly drawn) [F33, 2-chloro-5-((R,3R)-2,2-dichloro-3-(4-fluoro-3-(trifluoromethyl)phenyl)cyclopropane-1-carboxamido)-N-(2,4-difluoro-3-(2-((trifluoromethyl)sulfinyl)acetamido)phenyl)benzamide] | 50 to 100 | 50 to 100
CC(C(=O)Nc1c(F)ccc(NC(=O)c2cc(NC(=O)[C@H]3[C@H](c4cc(Cl)c(Cl)c(Cl)c4)C3(Cl)Cl)ccc2Cl)c1F)S(=O)(=O)C(F)(F)F (stereo partly drawn) [F35, 2-Chloro-5-((1R,3R)-2,2-dichloro-3-(3,4,5-trichlorophenyl)cyclopropane-1-carboxamido)-N-(2,4-difluoro-3-(2-((trifluoromethyl)sulfonyl)propanamido)phenyl)benzamide] | 50 to 100 | 50 to 100
O=C(CS(=O)(=O)C(F)(F)F)Nc1c(F)ccc(NC(=O)c2cc(NC(=O)[C@H]3[C@H](c4cc(Cl)c(Cl)c(Cl)c4)C3(Cl)Cl)ccc2Cl)c1F [F36, 2-Chloro-5-((1R,3R)-2,2-dichloro-3-(3,4,5-trichlorophenyl)cyclopropane-1-carboxamido)-N-(2,4-difluoro-3-(2-((trifluoromethyl)sulfonyl)acetamido)phenyl)benzamide] | 50 to 100 | 50 to 100
CC(C(=O)Nc1c(F)ccc(NC(=O)c2cc(NC(=O)[C@H]3[C@H](c4ccc(Cl)c(Cl)c4)C3(Cl)Cl)ccc2Cl)c1F)S(=O)(=O)C(F)(F)F (stereo partly drawn) [F37, 2-Chloro-5-((1R,3R)-2,2-dichloro-3-(3,4-dichlorophenyl)cyclopropane-1-carboxamido)-N-(2,4-difluoro-3-(2-((trifluoromethyl)sulfonyl)propanamido)phenyl)benzamide] | 50 to 100 | 50 to 100
O=C(CS(=O)(=O)C(F)(F)F)Nc1c(F)ccc(NC(=O)c2cc(NC(=O)[C@H]3[C@H](c4ccc(Cl)c(Cl)c4)C3(Cl)Cl)ccc2Cl)c1F [F38, 2-Chloro-5-((1R,3R)-2,2-dichloro-3-(3,4-dichlorophenyl)cyclopropane-1-carboxamido)-N-(2,4-difluoro-3-(2-((trifluoromethyl)sulfonyl)acetamido)phenyl)benzamide] | 50 to 100 | 50 to 100
CC(C(=O)Nc1c(F)ccc(NC(=O)c2cc(NC(=O)[C@H]3[C@H](c4ccc(F)c(Cl)c4)C3(Cl)Cl)ccc2Cl)c1F)S(=O)(=O)C(F)(F)F (stereo partly drawn) [F39, 2-Chloro-5-((1R,3R)-2,2-dichloro-3-(3-chloro-4-fluorophenyl)cyclopropane-1-carboxamido)-N-(2,4-difluoro-3-(2-((trif1uoromethyl)sulfonyl)propanamido)phenyl)benzamide] | 50 to 100 | 50 to 100
O=C(CS(=O)(=O)C(F)(F)F)Nc1c(F)ccc(NC(=O)c2cc(NC(=O)[C@H]3[C@H](c4ccc(F)c(Cl)c4)C3(Cl)Cl)ccc2Cl)c1F [F40] | 50 to 100 | 50 to 100
O=C(CS(=O)(=O)CC(F)(F)F)Nc1c(F)ccc(NC(=O)c2cc(NC(=O)[C@H]3[C@H](c4cc(Cl)c(Cl)c(Cl)c4)C3(Cl)Cl)ccc2Cl)c1F [F41, 2-Chloro-5-((1R,3R)-2,2-dichloro-3-(3,4,5-trichlorophenyl)cyclopropane-1-carboxamido)-N-(2,4-difluoro-3-(2-((2,2,2-trifluoroethyl)sulfonyl)acetamido)phenyl)benzamide] | 50 to 100 | 50 to 100
O=C(CS(=O)(=O)CC(F)(F)F)Nc1c(F)ccc(NC(=O)c2cc(NC(=O)[C@H]3[C@H](c4ccc(Cl)c(Cl)c4)C3(Cl)Cl)ccc2Cl)c1F [F42, 2-chloro-5-((1R,3R)-2,2-dichloro-3-(3,4-dichlorophenyl)cyclopropane-1-carboxamido)-N-(2,4-difluoro-3-(2-((2,2,2-trifluoroethyl)sulfonyl)acetamido)phenyl)benzamide] | 50 to 100 | 50 to 100
O=C(CS(=O)(=O)CC(F)(F)F)Nc1c(F)ccc(NC(=O)c2cc(NC(=O)[C@H]3[C@H](c4ccc(F)c(Cl)c4)C3(Cl)Cl)ccc2Cl)c1F [F43, 2-Chloro-5-((1R,3R)-2,2-dichloro-3-(3-chloro-4-fluorophenyl)cyclopropane-1-carboxamido)-N-(2,4-difluoro-3-(2-((2,2,2-trifluoroethyl)sulfonyl)acetamido)phenyl)benzamide] | 50 to 100 | 50 to 100
O=C(CS(=O)(=O)CC(F)(F)F)Nc1c(F)ccc(NC(=O)c2cc(NC(=O)[C@H]3[C@H](c4ccc(F)c(C(F)(F)F)c4)C3(Cl)Cl)ccc2Cl)c1F [F44, 2-Chloro-5-((1R,3R)-2,2-dichloro-3-(4-fluoro-3-(trifluoromethyl)phenyl)cyclopropane-1-carboxamido)-N-(2,4-difluoro-3-(2-((2,22-trifluoroethyl)sulfonyl)acetamido)phenyl)benzamide] | 50 to 100 | 50 to 100
CCS(=O)(=O)C(C)C(=O)Nc1c(F)ccc(NC(=O)c2cc(NC(=O)[C@H]3[C@H](c4ccc(F)c(C(F)(F)F)c4)C3(Cl)Cl)ccc2Cl)c1F (stereo partly drawn) [F45, 2-chloro-5-((R,3R)-2,2-dichloro-3-(4-fluoro-3-(trifluoromethyl)phenyl)cyclopropane-1-carboxamido)-N-(3-(2-(ethylsulfonyl)propanamido)-2,4-difluorophenyl)benzamide] | 50 to 100 | 50 to 100
O=C(CSC(F)(F)F)Nc1c(F)ccc(NC(=O)c2cc(NC(=O)[C@H]3[C@H](c4cccc(C(F)(F)F)c4)C3(Cl)Cl)ccc2Cl)c1F [F47, 2-Chloro-5-((1R,3R)-2,2-dichloro-3-(3-(trifluoromethyl)phenyl)cyclopropane-1-carboxamido)-N-(2,4-difluoro-3-(2-((trifluoromethyl)thio)acetamido)phenyl)benzamide] | 50 to 100 | 50 to 100
O=C(CSC(F)(F)F)Nc1c(F)ccc(NC(=O)c2cc(NC(=O)[C@H]3[C@H](c4cc(F)cc(C(F)(F)F)c4)C3(Cl)Cl)ccc2Cl)c1F [F49, 2-Chloro-5-((1R,3R)-2,2-dichloro-3-(3-fluoro-5-(trifluoromethyl)phenyl)cyclopropane-1-carboxamido)-N-(2,4-difluoro-3-(2-((trifluoromethyl)thio)acetamido)phenyl)benzamide] | 50 to 100 | 50 to 100
CSCC(=O)Nc1ccc(NC(=O)c2cc(NC(=O)[C@H]3[C@H](c4ccc(F)c(C(F)(F)F)c4)C3(Cl)Cl)ccc2Cl)c(F)c1 [F50, 2-Chloro-5-((1R,3R)-2,2-dichloro-3-(4-fluoro-3-(trifluoromethyl)phenyl)cyclopropane-1-carboxamido)-N-(2-fluoro-4-(2-(methylthio)acetamido)phenyl)benzamide] | 50 to 100 | 50 to 100
O=C(CSC(F)(F)F)Nc1ccc(NC(=O)c2cc(NC(=O)[C@H]3[C@H](c4ccc(F)c(C(F)(F)F)c4)C3(Cl)Cl)ccc2Cl)c(F)c1 [F51, 2-Chloro-5-((1R,3R)-2,2-dichloro-3-(4-fluoro-3-(trifluoromethyl)phenyl)cyclopropane-1-carboxamido)-N-(2-fluoro-4-(2-((trifluoromethyl)thio)acetamido)phenyl)benzamide] | 50 to 100 | 50 to 100
